From the supplement of paper PMC10307832

Tests used:
Assay in all cases: relative viability (nuclei count vs DMSO), 5 days (fraction); higher = more cells survive
ABC-1 = test system: ABC-1
How it was run: (§1)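 Lung cancer cell lines were pin-tool dosed in 1536-well plates on the day after seeding, with either a lone drug or a fixed anchor-drug dose plus five library-drug doses (not always all listed) in √10 steps. Nuclei were counted on 4× images after 5 days. Relative viability is the ratio of treated-well to vehicle-well nuclei counts, with each value a median of duplicate plates.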

COR-L23 = test system: COR-L23
How it was run: as §1

ChaGo-K-1 = test system: ChaGo-K-1
How it was run: as §1

NCI-H1437 = test system: NCI-H1437
How it was run: as §1

NCI-H1623 = test system: NCI-H1623
How it was run: as §1

NCI-H1648 = test system: NCI-H1648
How it was run: as §1

NCI-H1651 = test system: NCI-H1651
How it was run: as §1

SK-MES-1 = test system: SK-MES-1
How it was run: as §1

SW 1573 = test system: SW 1573
How it was run: as §1

`CC(=O)O[C@@]12CO[C@@H]1C[C@H](O)[C@@]1(C)C(=O)[C@H](O)C3=C(C)[C@@H](OC(=O)[C@H](O)[C@@H](NC(=O)OC(C)(C)C)c4ccccc4)C[C@@](O)([C@@H](OC(=O)c4ccccc4)[C@H]21)C3(C)C` [Docetaxel] + Cc1cc(Nc2cc(N3CCN(C)CC3)nc(Sc3ccc(NC(=O)C4CC4)cc3)n2)n[nH]1 [Tozasertib] (partner 0.1 µM) showed a relative viability (ABC-1; first compound 0.0002 µM) of 0.15, a relative viability (ABC-1; first compound 0.000632 µM) of 0.191 and a relative viability (ABC-1; first compound 0.002 µM) of 0.195. It also gave a relative viability (ABC-1; first compound 0.006325 µM) of 0.159, a relative viability (ABC-1; first compound 0.02 µM) of 0.218 and a relative viability (COR-L23; first compound 0.0002 µM) of 0.199. It also gave a relative viability (COR-L23; first compound 0.000632 µM) of 0.21, a relative viability (COR-L23; first compound 0.002 µM) of 0.141 and a relative viability (COR-L23; first compound 0.006325 µM) of 0.153. For the same compound, the relative viability (COR-L23; first compound 0.02 µM) was 0.133, the relative viability (ChaGo-K-1; first compound 0.0002 µM) was 0.218 and the relative viability (ChaGo-K-1; first compound 0.002 µM) was 0.201. The relative viability (ChaGo-K-1; first compound 0.006325 µM) was 0.199, the relative viability (ChaGo-K-1; first compound 0.02 µM) was 0.185 and the relative viability (NCI-H1437; first compound 0.0002 µM) was 0.354. The relative viability (NCI-H1437; first compound 0.000632 µM) was 0.374, the relative viability (NCI-H1437; first compound 0.002 µM) was 0.241 and the relative viability (NCI-H1437; first compound 0.006325 µM) was 0.273. It also gave a relative viability (NCI-H1437; first compound 0.02 µM) of 0.201, a relative viability (NCI-H1623; first compound 0.0002 µM) of 0.453 and a relative viability (NCI-H1623; first compound 0.000632 µM) of 0.367. For the same compound, the relative viability (NCI-H1623; first compound 0.002 µM) was 0.409, the relative viability (NCI-H1623; first compound 0.006325 µM) was 0.42 and the relative viability (NCI-H1623; first compound 0.02 µM) was 0.377. It also gave a relative viability (NCI-H1648; first compound 0.0002 µM) of 0.449, a relative viability (NCI-H1648; first compound 0.000632 µM) of 0.509 and a relative viability (NCI-H1648; first compound 0.002 µM) of 0.28. For the same compound, the relative viability (NCI-H1648; first compound 0.006325 µM) was 0.195, the relative viability (NCI-H1648; first compound 0.02 µM) was 0.155 and the relative viability (NCI-H1651; first compound 0.0002 µM) was 0.716. The relative viability (NCI-H1651; first compound 0.000632 µM) was 0.717, the relative viability (NCI-H1651; first compound 0.002 µM) was 0.187 and the relative viability (NCI-H1651; first compound 0.006325 µM) was 0.189. For the same compound, the relative viability (SK-MES-1; first compound 0.0002 µM) was 0.974, the relative viability (SK-MES-1; first compound 0.000632 µM) was 0.459 and the relative viability (SK-MES-1; first compound 0.002 µM) was 0.252. The relative viability (SK-MES-1; first compound 0.006325 µM) was 0.166, the relative viability (SK-MES-1; first compound 0.02 µM) was 0.134 and the relative viability (SW 1573; first compound 0.0002 µM) was 0.24. The relative viability (SW 1573; first compound 0.000632 µM) was 0.189, the relative viability (SW 1573; first compound 0.002 µM) was 0.256 and the relative viability (SW 1573; first compound 0.02 µM) was 0.199.

`COc1cc2nccc(Oc3ccc(NC(=O)Nc4cc(C)on4)c(Cl)c3)c2cc1OC` [Tivozanib] + COc1cccc2cc(-c3nc([C@H]4CC[C@H](C(=O)O)CC4)n4ncnc(N)c34)[nH]c12 [OSI-027] (partner 0.5 µM) was tested, and the relative viability (ABC-1; first compound 0.005 µM) was 0.456, the relative viability (ABC-1; first compound 0.01581 µM) was 0.509 and the relative viability (ABC-1; first compound 0.05 µM) was 0.462. It also gave a relative viability (ABC-1; first compound 0.1581 µM) of 0.359, a relative viability (ABC-1; first compound 0.5 µM) of 0.395 and a relative viability (COR-L23; first compound 0.005 µM) of 0.74. It also gave a relative viability (COR-L23; first compound 0.01581 µM) of 0.715, a relative viability (COR-L23; first compound 0.05 µM) of 0.799 and a relative viability (COR-L23; first compound 0.1581 µM) of 0.617. It also gave a relative viability (COR-L23; first compound 0.5 µM) of 0.647, a relative viability (ChaGo-K-1; first compound 0.005 µM) of 0.601 and a relative viability (ChaGo-K-1; first compound 0.01581 µM) of 0.555. For the same compound, the relative viability (ChaGo-K-1; first compound 0.05 µM) was 0.605, the relative viability (ChaGo-K-1; first compound 0.1581 µM) was 0.552 and the relative viability (ChaGo-K-1; first compound 0.5 µM) was 0.432. The relative viability (NCI-H1437; first compound 0.005 µM) was 0.887, the relative viability (NCI-H1437; first compound 0.01581 µM) was 0.843 and the relative viability (NCI-H1437; first compound 0.05 µM) was 0.946. For the same compound, the relative viability (NCI-H1437; first compound 0.1581 µM) was 0.661, the relative viability (NCI-H1437; first compound 0.5 µM) was 0.837 and the relative viability (NCI-H1623; first compound 0.005 µM) was 0.414. It also gave a relative viability (NCI-H1623; first compound 0.01581 µM) of 0.445, a relative viability (NCI-H1623; first compound 0.05 µM) of 0.431 and a relative viability (NCI-H1623; first compound 0.1581 µM) of 0.407. It also gave a relative viability (NCI-H1623; first compound 0.5 µM) of 0.459, a relative viability (NCI-H1648; first compound 0.005 µM) of 0.255 and a relative viability (NCI-H1648; first compound 0.01581 µM) of 0.25. It also gave a relative viability (NCI-H1648; first compound 0.05 µM) of 0.221, a relative viability (NCI-H1648; first compound 0.1581 µM) of 0.218 and a relative viability (NCI-H1648; first compound 0.5 µM) of 0.258. The relative viability (NCI-H1651; first compound 0.005 µM) was 0.759, the relative viability (NCI-H1651; first compound 0.01581 µM) was 0.721 and the relative viability (NCI-H1651; first compound 0.05 µM) was 0.737. It also gave a relative viability (NCI-H1651; first compound 0.1581 µM) of 0.497, a relative viability (NCI-H1651; first compound 0.5 µM) of 0.67 and a relative viability (SK-MES-1; first compound 0.005 µM) of 0.515. The relative viability (SK-MES-1; first compound 0.01581 µM) was 0.573, the relative viability (SK-MES-1; first compound 0.05 µM) was 0.7 and the relative viability (SK-MES-1; first compound 0.1581 µM) was 0.515. For the same compound, the relative viability (SK-MES-1; first compound 0.5 µM) was 0.583, the relative viability (SW 1573; first compound 0.005 µM) was 0.575 and the relative viability (SW 1573; first compound 0.01581 µM) was 0.633. It also gave a relative viability (SW 1573; first compound 0.05 µM) of 0.68, a relative viability (SW 1573; first compound 0.1581 µM) of 0.366 and a relative viability (SW 1573; first compound 0.5 µM) of 0.447.
